Results taken from the NIST ThermoML archive (doi:10.1016/j.jct.2016.08.001).

Experiments:
[1] = refractive index (Na D-line) (dimensionless); xn = mol fraction of the nth substance listed; settings: 100 kPa, Liquid, Standard Abbe refractometry
[2] = xn = mol fraction of the nth substance listed; settings: 100 kPa, Liquid; for speed of sound: Frequency=3 MHz, Sing-around technique in a fixed-path interferometer; for mass density: Vibrating tube method

Nc1ccccc1 [aniline] + CCOC(=O)OCC
Settings	mass density, [2] [kg/m3]	refractive index, [1]	speed of sound, [2] [m/s]
298.15 K, x2 = 0	1017.1	1.5826	1636.8
298.15 K, x2 = 0.073	1014.2	1.5649	1594.4
298.15 K, x2 = 0.1652	1010.2	1.5435	1543.3
298.15 K, x2 = 0.2537	1006.4	1.5237	1497.7
298.15 K, x2 = 0.3387	1002.6	1.5053	1455.9
298.15 K, x2 = 0.4432	998	1.4835	1407.9
298.15 K, x2 = 0.5468	993	1.4626	1361.3
298.15 K, x2 = 0.6546	987.7	1.4419	1316
298.15 K, x2 = 0.7559	982.5	1.4235	1274.2
298.15 K, x2 = 0.884	975.9	1.4016	1222.6
303.15 K, x2 = 0	1012.7	1.5793	1617.5
303.15 K, x2 = 0.073	1009.8	1.562	1575.1
303.15 K, x2 = 0.1652	1005.7	1.5408	1523.9
303.15 K, x2 = 0.2537	1001.8	1.5212	1478.3
303.15 K, x2 = 0.3387	997.9	1.5029	1436.4
303.15 K, x2 = 0.4432	993.2	1.4813	1388.2
303.15 K, x2 = 0.5468	988.1	1.4606	1341.5
303.15 K, x2 = 0.6546	982.6	1.4401	1296
303.15 K, x2 = 0.7559	977.3	1.4216	1254.1
303.15 K, x2 = 0.884	970.5	1.3995	1202.3
308.15 K, x2 = 0	1008.4	1.576	1598.3
308.15 K, x2 = 0.073	1005.4	1.559	1555.8
308.15 K, x2 = 0.1652	1001.2	1.538	1504.6
308.15 K, x2 = 0.2537	997.1	1.5187	1458.5
308.15 K, x2 = 0.3387	993.2	1.5006	1416.8
308.15 K, x2 = 0.4432	988.3	1.4791	1368.5
308.15 K, x2 = 0.5468	983.1	1.4586	1321.7
308.15 K, x2 = 0.6546	977.5	1.4381	1276
308.15 K, x2 = 0.7559	972	1.4196	1234.1
308.15 K, x2 = 0.884	965.1	1.3974	1182.1
313.15 K, x2 = 0	1004.1	1.5727	1579.1
313.15 K, x2 = 0.073	1001	1.556	1536.6
313.15 K, x2 = 0.1652	996.6	1.5354	1485.3
313.15 K, x2 = 0.2537	992.5	1.5162	1439.1
313.15 K, x2 = 0.3387	988.5	1.4983	1397.4
313.15 K, x2 = 0.4432	983.5	1.477	1349
313.15 K, x2 = 0.5468	978.1	1.4566	1302
313.15 K, x2 = 0.6546	972.4	1.4362	1256.3
313.15 K, x2 = 0.7559	966.8	1.4176	1214.2
313.15 K, x2 = 0.884	959.8	1.3954	1162.1
318.15 K, x2 = 0	999.7	1.5694	1560
318.15 K, x2 = 0.073	996.5	1.5531	1517.6
318.15 K, x2 = 0.1652	992.1	1.5327	1466
318.15 K, x2 = 0.2537	987.9	1.5137	1419.8
318.15 K, x2 = 0.3387	983.7	1.496	1378
318.15 K, x2 = 0.4432	978.6	1.4749	1329.5
318.15 K, x2 = 0.5468	973.1	1.4545	1282.5
318.15 K, x2 = 0.6546	967.2	1.4343	1236.6
318.15 K, x2 = 0.7559	961.4	1.4156	1194.5
318.15 K, x2 = 0.884	954.3	1.3933	1142.2
323.15 K, x2 = 0	995.4	1.5661	1540.9
323.15 K, x2 = 0.073	992.1	1.5501	1498.2
323.15 K, x2 = 0.1652	987.6	1.5302	1446.8
323.15 K, x2 = 0.2537	983.2	1.5113	1400.5
323.15 K, x2 = 0.3387	979	1.4937	1358.7
323.15 K, x2 = 0.4432	973.7	1.4728	1310.1
323.15 K, x2 = 0.5468	968.1	1.4525	1263
323.15 K, x2 = 0.6546	962	1.4323	1217.1
323.15 K, x2 = 0.7559	956.1	1.4138	1174.9
323.15 K, x2 = 0.884	948.8	1.3913	1122.5
